The values below come from patent US6506785B2, “Treating or preventing the early stages of degeneration of articular cartilage or subchondral bone in mammals using carprofen and derivatives” (Pfizer, Inc., priority 1998, dated 2003).

Data set [1] can be described thus: Clearance rates of carprofen-genus enantiomers. To be noted: in vivo. An excerpt: The above-recited ranges of dosage amounts, which are also recited elsewhere herein, are for racemic mixtures of compounds of Formula (I) having a chiral carbon, or for single compounds of Formula (I) where no chiral carbon atom is present. As will be appreciated by the person of ordinary skill in this art, i.e., a practicing veterinarian or a person with an advanced degree and experience in animal health issues, where other than a racemic mixture of compounds of Formula (I) is involved, the chondroprotective therapeutically effective amount will vary. For example, if 85% of the mixture is (S)-enantiomer, that will ordinarily tend to reduce the necessary dosage. […] However, the degree of difference between the activities of the two enantiomers must also take into account other differences, especially differences in pharmacokinetics between the two enantiomers, in determining the proper dosage. […] This, in turn, will have a calculable impact on the amount of active compound to be administered. Ordinarily, such determinations will be made on a case-by-case basis by the artisan, but these are well within the ordinary skill of the art, as is instituting the methods whereby data necessary for the supporting calculations may be obtained.

For data set [2] the following is noted: in vivo, po. How it is done:
Accordingly, a useful controlled release dosage form of carprofen in accordance with the present invention is one which maintains a carprofen plasma level greater than 2 μg/mL for most of the day after a single oral dose at 2 mg/lb.
Immediate release carprofen dosage forms containing doses of 1.8, 1.6, and 1.4 mg/lb maintain a plasma carprofen concentration above 10 μg/mL for 9.5 hrs, 8.5 hrs, and 7.5 hrs, respectively. Preferred 1.8 mg/lb oral controlled release carprofen dosage forms maintain a plasma carprofen concentration above 10 μg/mL for greater than 9.5 hrs. Likewise, the threshold durations for 1.6 mg/lb and 1.4 mg/lb doses are 8.5 hrs and 7.5 hrs, respectively. The performance characteristics for preferred oral controlled release carprofen dosage forms at doses higher than 2 mg/lb or less than 1.4 mg/lb can be similarly calculated, assuming linear pharmacokinetics. More preferred oral controlled release carprofen dosage forms are those which maintain a plasma carprofen concentration greater than 10 μg/mL for a period of time greater than or equal to that observed when an immediate release carprofen dosage form is dosed at any higher dose. […]

Data set [3] deals with cultured osteoarthritic mammal chondrocytes / cartilage explants. To be noted: cited from earlier work.
Another data set relates to articular cartilage. To be noted: cited from earlier work.
For data set [4], the system named is atrophied mammal articular cartilage. To be noted: in vivo; cited from earlier work.
Data set [5] concerns cartilage homeostasis in osteoarthritic joints. To be noted: compared with control joints; cited from earlier work.

Turning to `C[C@H](C(=O)O)c1ccc2c(c1)[nH]c1ccc(Cl)cc12` (single isomer, unassigned) [(+)(S) enantiomer], the “clearance rates, (+)(S) versus (−)(R) enantiomer” value in data set [1] is “significant difference in clearance rates”.

In the case of `C[C@@H](C(=O)O)c1ccc2c(c1)[nH]c1ccc(Cl)cc12` (single isomer, unassigned) [(−)(R) enantiomer], the “clearance rates, (+)(S) versus (−)(R) enantiomer” value in data set [1] is “significant difference in clearance rates”.

As to `CC(C(=O)O)c1ccc2c(c1)[nH]c1ccc(Cl)cc12` (stereo not drawn) [carprofen, 6-chloro-α-methyl-9H-carbazole-2-acetic acid], the “time plasma carprofen levels are maintained above approximately 10 μg/mL” value in data set [2] turned out to be 10.5 h. For the same compound, in data set [3] (carprofen concentrations of 1 and 10), the “cartilage GAG synthesis” value is given as “selectively stimulating new cartilage GAG synthesis”. For the same compound, the cartilage proteoglycan breakdown result in data set [3] (carprofen concentrations of 1 and 10 μL/ml) is recorded as “without any direct effect on cartilage proteoglycan breakdown”.

With Pentosan polysulfate [PPS], the articular cartilage damage entry with articular cartilage (gross and histologic evaluation) is listed as “significantly decrease articular cartilage damage”. In the data set on articular cartilage (in vivo), the “articular cartilage proteoglycan content” value was “maintenance of normal articular cartilage proteoglycan content”.

hyaluronic acid [HA]: in data set [4], the “effect on atrophied articular cartilage” value is recorded as “chondrostabilizing effect”.

As for polysulfated glycosaminoglycan [PSGAG], in data set [5], the microscopic structural alteration result is “decreased microscopic structural alteration”, the proteinase activity entry was “decreased proteinase activity” and the proteoglycan in cartilage entry is “retention of proteoglycan in cartilage”.
